Laboratory results published in article PMC8272913 (ACS chemical neuroscience, 2019).
Read-outs that look alike come from different tables or passages of the source.

How the values were obtained:
rat SERT (rSERT) = rat SERT (rSERT) (Rattus norvegicus, UniProt P31652); experiment: Inhibition of [3H]citalopram binding to rSERT from rat brain tissue; settings: for Ki: read-out: Ki, binding affinity for rSERT; for fold decrease in rSERT binding affinity relative to paroxetine: vs paroxetine
hSERT WT [1] = target: T1, hSERT WT (Homo sapiens, UniProt P31645); settings: read-out: Ki (nM) RTI-55 Binding WT
hSERT-A169D [2] = target: T2, hSERT-A169D (Homo sapiens, UniProt P31645, A169D); type: binding
hSERT WT [3] = target: T1, hSERT WT; type: cell-based; settings: read-out: Ki (nM) 5-HT Transport WT
hSERT-A169D [4] = target: T2, hSERT-A169D; type: cell-based
hSERT = hSERT (Homo sapiens, UniProt P31645); type: binding

Sequence of rat SERT (rSERT) (P31652 whole entry): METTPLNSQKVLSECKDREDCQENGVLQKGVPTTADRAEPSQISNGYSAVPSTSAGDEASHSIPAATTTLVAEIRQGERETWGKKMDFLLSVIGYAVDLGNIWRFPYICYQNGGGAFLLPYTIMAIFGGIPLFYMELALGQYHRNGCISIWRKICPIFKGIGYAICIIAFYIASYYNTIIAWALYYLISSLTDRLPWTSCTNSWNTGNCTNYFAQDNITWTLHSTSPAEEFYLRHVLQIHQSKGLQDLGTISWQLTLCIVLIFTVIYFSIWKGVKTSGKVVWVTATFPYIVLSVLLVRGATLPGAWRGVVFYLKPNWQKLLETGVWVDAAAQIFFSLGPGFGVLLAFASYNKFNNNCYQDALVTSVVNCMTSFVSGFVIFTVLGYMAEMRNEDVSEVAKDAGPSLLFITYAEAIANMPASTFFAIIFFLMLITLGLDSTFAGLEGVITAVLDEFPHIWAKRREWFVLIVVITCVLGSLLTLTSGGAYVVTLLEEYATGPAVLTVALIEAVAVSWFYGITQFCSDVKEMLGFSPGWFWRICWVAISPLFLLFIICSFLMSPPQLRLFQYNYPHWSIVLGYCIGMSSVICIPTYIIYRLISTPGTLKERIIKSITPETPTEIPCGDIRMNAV

Fc1ccc(C2CCN(Cc3ccc(Br)cc3)CC2COc2ccc3c(c2)OCO3)cc1 (centres unmarked) [compound 3]
Ki (rat SERT (rSERT)): 204 nM

CCCN1CCC(c2ccc(F)cc2)C(COc2ccc3c(c2)OCO3)C1 (centres unmarked) [compound 2]
Ki (rat SERT (rSERT)): 98 nM

O=C(Cc1ccc(Br)cc1)N1CCC(c2ccc(F)cc2)C(COc2ccc3c(c2)OCO3)C1 (centres unmarked) [compound 6]
Ki (rat SERT (rSERT)): 3820 nM

c1ccc([C@@H]2CCNC[C@H]2COc2ccc3c(c2)OCO3)cc1 [compound 15, desfluoroparoxetine]
Ki (rat SERT (rSERT)): 0.557 nM

CN1CC[C@@H](c2ccc(F)cc2)[C@H](COc2ccc3c(c2)OCO3)C1 [compound 14]
Ki (rat SERT (rSERT)): 2.95 nM | fold decrease in rSERT binding affinity relative to paroxetine (rat SERT (rSERT)): 9.5 fold

Brc1ccc([C@@H]2CCNC[C@H]2COc2ccc3c(c2)OCO3)cc1 [compound 13, 4-bromoparoxetine]
Ki (hSERT WT [1]): 1.07 ± 0.3 nM | Ki (rat SERT (rSERT)): 4.9 nM | fold decrease in rSERT binding affinity relative to paroxetine (rat SERT (rSERT)): 16 fold | RTI-55 Binding Sensitivity toward the A169D mutation (hSERT-A169D [2]; A169D versus WT): 1.6 | Ki (hSERT-A169D [2]; read-out: Ki (nM) RTI-55 Binding A169D, hSERT A169D): 1.72 ± 0.39 nM | Ki (hSERT WT [3]): 2.3 ± 0.27 nM | 5-HT Transport Sensitivity toward the A169D mutation (hSERT-A169D [4]; A169D versus WT): 2.8 | Ki (hSERT-A169D [4]; read-out: Ki (nM) 5-HT Transport A169D, hSERT A169D): 6.37 ± 0.74 nM | fold reduction in binding affinity as compared to paroxetine (hSERT): ~ 4 fold | Ki (hSERT; read-out: Ki, binding affinity): 0.32 ± 0.028 nM

CCCCCCN1CCC(c2ccc(F)cc2)C(COc2ccc3c(c2)OCO3)C1 (centres unmarked) [compound 1]
Ki (rat SERT (rSERT)): 395 nM
